Data set [1] can be described thus: in vitro. The note with it: human, liver microsomes.
Data set [2] can be described thus: in vitro. Particulars: rat, liver microsomes.

Each structure is given as a SMILES string.

In the case of `CS(=O)(=O)N1CCN(Cc2cn3cc(-c4cnc(N)nc4)nc(N4CCOCC4)c3n2)CC1`, the amount remaining at 0.25 h, 1 µM turned out to be 93% in “in vitro [1]” and 99% in “in vitro [2]”.
